Measurements taken from patent publication US8846653B2, “Delta-tocotrienol treatment and prevention of pancreatic cancer” (University of South Florida, priority 2006, dated 2014).

What was measured:
[1] = test system: MiaPaCa-2 cells; assay: MTT assay of MiaPaCa2 cultures, single 50 μM dose; format: cell-based, human; set-up: rel amt (relative value set to the control): unit not given here; settings: MiaPaCa2, 50 μM; for MTT assay result, av-blank: average minus blank; for MTT assay result, av: average of 7 runs
Procedure: MiaPaCa-2, BxPc-3, and HPDE6-C7 cells were cultured as described above, and treated with a single 50 μM dose of vehicle (ethanol extracted olive oil), T3 alpha (alpha tocotrienol), T3 beta (beta tocotrienol), T3 gamma (gamma tocotrienol), T3 delta (delta tocotrienol), T alpha (alpha tocopherol), T beta (beta tocopherol), TS (tocopherol succinate), GG (geranylgeraniol), SA (succinic acid). A control culture (vehicle only with no treatment) was grown alongside the treatments for comparison. Cell viability was measured using MTT assay at preselect times of 48 or 120 hours after treatment.

[2] = test system: human pancreatic ductal epithelial cells transformed with oncogenic K-ras (HPDE-K-ras); assay: Proliferation (MTT) of K-ras transformed ductal epithelial cells; format: cell-based; settings: 72 hours
Procedure: FIGS. 36A and B are graphs showing the effect of tocotrienols on Human Pancreatic Ductal Epithelial Kras Transformed cells (MTT). (A) Tocotrienols (10-100 μM) had no effect on the proliferation of normal immortalized human pancreatic ductal epithelial cells at 72 hours. […] Points, means; bars, SE (n=3). *p<0.001 vs. vehicle. # p<0.02 vs. vehicle
The Ras effector pathways Raf-MEK-ERK and PI3 kinase-AKT are important for cell proliferation and survival, respectively. Pancreatic cancer cell lines (MIA PaCa2, SW1990, BXPC3) and HPDE 6C7 cells were treated with 8-tocotrienol (20 μM) and cell lysates were collected and prepared at progressive time intervals as described above. Proteins from lysates were run by SDS PAGE and immunoblotted with the following antibodies: Ras, p-cRaf (ser 338), p-MEK1/2, MEK1/2, pERK 44/42, ERK 44/42 (Cell Signaling) and c-Raf (BD Transduction Laboratories). […] The MIA PaCa2 and SW1990 cells were then tested for AKT inhibition. The cells were treated with δ-tocotrienol (20 μM) for 24 and 48 hours and cell lysates were run by SDS-PAGE and immunoblotted for p-AKT and AKT (Cell Signaling). […] Taken together, the inhibition of downstream effectors of oncogenic Ras signaling by δ-tocotrienol without an effect on Ras protein levels may indicate a negative regulatory role of 8-tocotrienol on the function of oncogenic Ras. The pancreatic ductal epithelial cell proliferative inhibition by δ-tocotrienol was tested to see if it occurs through blocking aberrant signal transduction cascades. Immortalized human pancreatic ductal epithelial cells (HPDE) and human pancreatic ductal epithelial cells that were transformed by stable transfection of a mutated K-ras oncogene (HPDE-K-ras) were used to test the. effect of tocotrienols on the proliferation of HPDE and HPDE-K-ras.

[3] = test system: MiaPaCa2 pancreatic cancer cells; assay: Effect of tocotrienols on pancreatic cancer proliferation (MTT), 72 hours; format: cell-based, human; settings: MiaPaCa2, 40 to 100 μM, vs vehicle
Excerpt: (§1) FIGS. 11A and B are graphs showing the effect of tocotrienols on pancreatic cancer proliferation (MTT). […] Points, means; bars, SE (n=3).

[4] = test system: AsPc1 pancreatic cancer cells; assay: as above; format: cell-based, human; settings: AsPc1, 40 to 100 μM, vs vehicle
Excerpt: as §1

[5] = test system: MiaPaCa2 pancreatic cancer cells; assay: Malignant transformation (Soft Agar) colony formation; format: cell-based, human; settings: MiaPaCa2, 50 μM, vs vehicle
Procedure: FIG. 20 is a graph showing the effect of tocotrienols on pancreatic cancer malignant transformation (Soft Agar). […] Bars, SE (n=3). *p<0.001 vs. vehicle. **p<0.02 vs. vehicle. ***p<0.05 vs. vehicle. T=tocopherol, T3=tocotrienol.
MiaPaCa2 cells (3×10^3) were cultured as described in the Examples above, in 96-well plates and treated with 50 μM of different tocopherol or tocotrienol.

[6] = test system: MiaPaCa2 pancreatic cancer cells; assay: Cell death by trypan blue assay, 72 hours; format: cell-based, human; settings: MiaPaCa2, 50 μM
Procedure: (§2) FIGS. 38A and B are graphs showing the effect of tocotrienols on pancreatic cancer survival (Trypan Blue and Cell death ELISA). […] T3=tocotrienol, T=tocopherol, vit E=vitamin E succinate, gem=gemcitabine, 5-FU=fluorouracil.
(§3) MIA PaCa2 cells (3×10^3) were plated in 96 well plates and treated the following day with different compositions of tocoperhol, tocotrienol, gemcitabine, or fluorouracil. The cells were harvested 72 hours later and tested using trypan blue assay and cell death ELISA.

[7] = test system: MiaPaCa2 pancreatic cancer cells; assay: Apoptosis by cell death ELISA, 72 hours; format: cell-based, human; settings: MiaPaCa2, 50 μM
Procedure: as §2, §3

| Compound | rel amt (relative value set to the control) ([1]; 48 hours) | MTT assay result, av-blank ([1]; 48 hours) | MTT assay result, av ([1]; 48 hours) | MTT assay result, run 1 ([1]; 48 hours) | MTT assay result, run 2 ([1]; 48 hours) | MTT assay result, run 3 ([1]; 48 hours) | MTT assay result, run 4 ([1]; 48 hours) | MTT assay result, run 5 ([1]; 48 hours) | MTT assay result, run 6 ([1]; 48 hours) | MTT assay result, run 7 ([1]; 48 hours) | rel amt (relative value set to the control) ([1]; 120 hours (5 days)) | MTT assay result, av-blank ([1]; 120 hours (5 days)) | MTT assay result, av ([1]; 120 hours (5 days)) | MTT assay result, run 1 ([1]; 120 hours (5 days)) | MTT assay result, run 2 ([1]; 120 hours (5 days)) | MTT assay result, run 3 ([1]; 120 hours (5 days)) | MTT assay result, run 4 ([1]; 120 hours (5 days)) | MTT assay result, run 5 ([1]; 120 hours (5 days)) | MTT assay result, run 6 ([1]; 120 hours (5 days)) | MTT assay result, run 7 ([1]; 120 hours (5 days)) | further results |
| --- | --- | --- | --- | --- | --- | --- | --- | --- | --- | --- | --- | --- | --- | --- | --- | --- | --- | --- | --- | --- | --- |
| CC(C)=CCC/C(C)=C/CC/C(C)=C/CC/C(C)=C/CO [GG, geranylgeraniol] | 92 | 0.285 | 0.331 | 0.329 | 0.339 | 0.321 | 0.328 | 0.342 | 0.317 | 0.341 | 93 | 1.679 | 1.731 | 1.738 | 1.608 | 1.577 | 1.744 | 2.134 | 1.606 | 1.711 | – |
| O=C(O)CCC(=O)O [SA, succinic acid] | 74 | 0.228 | 0.274 | 0.276 | 0.269 | 0.268 | 0.276 | 0.3 | 0.262 | 0.266 | 80 | 1.443 | 1.495 | 1.36 | 1.346 | 1.488 | 1.609 | 1.84 | 1.412 | 1.408 | – |
| CC(C)=CCC/C(C)=C/CC/C(C)=C/CC[C@]1(C)CCc2c(C)c(O)cc(C)c2O1 [T3 beta, beta tocotrienol] | 62 | 0.193 | 0.239 | 0.272 | 0.235 | 0.233 | 0.226 | 0.252 | 0.219 | 0.239 | 53 | 0.966 | 1.018 | 0.97 | 0.781 | 0.977 | 1.154 | 1.408 | 0.944 | 0.891 | proliferation (MTT) [2]: significantly inhibited |
| CC(C)=CCC/C(C)=C/CC/C(C)=C/CC[C@]1(C)CCc2cc(O)c(C)c(C)c2O1 [T3 gamma, gamma tocotrienol] | 40 | 0.124 | 0.170 | 0.185 | 0.181 | 0.156 | 0.183 | 0.21 | 0.141 | 0.137 | 2 | 0.042 | 0.094 | 0.088 | 0.084 | 0.098 | 0.089 | 0.12 | 0.084 | 0.092 | proliferation (MTT) [2]: significantly inhibited |
| Cc1c(C)c2c(c(C)c1O)CC[C@@](C)(CCC[C@H](C)CCC[C@H](C)CCCC(C)C)O2 [T alpha, alpha tocopherol] | 95 | 0.296 | 0.342 | 0.365 | 0.352 | 0.339 | 0.338 | 0.35 | 0.297 | 0.35 | 89 | 1.604 | 1.656 | 1.56 | 1.647 | 1.59 | 1.619 | 2.059 | 1.526 | 1.588 | proliferation (MTT) [3]: no effect; proliferation (MTT) [4]: no effect; malignant transformation (Soft Agar) [5]: no effect; cell death (Trypan Blue) [6]: no effect; apoptosis (Cell death ELISA) [7]: no effect |
| Cc1c(O)cc2c(c1C)O[C@](C)(CCC[C@H](C)CCC[C@H](C)CCCC(C)C)CC2 [T gamma] | 94 | 0.292 | 0.338 | 0.35 | 0.323 | 0.312 | 0.36 | 0.348 | 0.328 | 0.348 | 87 | 1.566 | 1.618 | 1.52 | 1.516 | 1.547 | 1.625 | 1.917 | 1.568 | 1.635 | – |
| Cc1c(C)c2c(c(C)c1OC(=O)CCC(=O)O)CC[C@@](C)(CCC[C@H](C)CCC[C@H](C)CCCC(C)C)O2 [TS, tocopherol succinate] | 48 | 0.148 | 0.194 | 0.215 | 0.184 | 0.2 | 0.187 | 0.194 | 0.19 | 0.185 | 43 | 0.773 | 0.825 | 0.732 | 0.776 | 0.786 | 0.714 | 0.939 | 0.859 | 0.968 | – |
